Reference: US4548943A, “Antiinflammatory, analgesic, or anti-primary dysmenorrheal arylmethylene- and arylmethylindenoimidazoles” (E. I. Du Pont de Nemours and Company, priority 1984, dated 1985)
Like-named read-outs stand apart in the source and are kept apart here.

Experiments:
[1] = test system: phenylquinone writhing (mice); assay: Phenylquinone writhing test; type: in vivo, mouse (female white); conditions: for ED50: Mus musculus, po, read-out: PQW ED50; for PQW ED50: oral
Experimental: Phenylquinone Writhing Test
A standard procedure for detecting and comparing the analgesic activity of compounds in this series for which there is a good correlation with human efficacy is the standard phenylquinone writhing test modified from Siegmund, et al., Proc. Soc. Exp. Biol. Med., 95, 729 (1957). A test compound suspended in 1% methylcellulose was given orally to fasted (17-21 hours) female white mice, 5-20 animals per double blind test. Aqueous (0.01% phenyl-p-benzoquinone)phenylquinone, 0.20 ml per mouse, was injected intraperitoneally 6 minutes before observations were begun. […] Rev., 11, 115-145 (1947). Data for some of the compounds is summarized in Table 4 together with data for some standard analgetic antiinflammatory drugs.

[2] = test system: adjuvant-induced arthritis in rats; assay: Established adjuvant-induced arthritis in rats; type: in vivo, rat (male Charles River Lewis); conditions: for ED50: Rattus norvegicus, read-out: Adjuvant Arthritis ED50; for Adjuvant Arthritis, decrease in paw volume from controls at dose indicated: @ 9 mg/kg
[3] = target: T1, bovine seminal vesicle prostaglandin synthetase (PGS) (Bos taurus, UniProt O62664); assay: Prostaglandin synthetase inhibition assay; type: biochemical; conditions: 14C-arachidonic acid 0.02 mM, pH 8.5, 10 minutes
T1 construct: purchased Miles; host or cells: bovine seminal vesicle
T1 sequence (O62664 25-600): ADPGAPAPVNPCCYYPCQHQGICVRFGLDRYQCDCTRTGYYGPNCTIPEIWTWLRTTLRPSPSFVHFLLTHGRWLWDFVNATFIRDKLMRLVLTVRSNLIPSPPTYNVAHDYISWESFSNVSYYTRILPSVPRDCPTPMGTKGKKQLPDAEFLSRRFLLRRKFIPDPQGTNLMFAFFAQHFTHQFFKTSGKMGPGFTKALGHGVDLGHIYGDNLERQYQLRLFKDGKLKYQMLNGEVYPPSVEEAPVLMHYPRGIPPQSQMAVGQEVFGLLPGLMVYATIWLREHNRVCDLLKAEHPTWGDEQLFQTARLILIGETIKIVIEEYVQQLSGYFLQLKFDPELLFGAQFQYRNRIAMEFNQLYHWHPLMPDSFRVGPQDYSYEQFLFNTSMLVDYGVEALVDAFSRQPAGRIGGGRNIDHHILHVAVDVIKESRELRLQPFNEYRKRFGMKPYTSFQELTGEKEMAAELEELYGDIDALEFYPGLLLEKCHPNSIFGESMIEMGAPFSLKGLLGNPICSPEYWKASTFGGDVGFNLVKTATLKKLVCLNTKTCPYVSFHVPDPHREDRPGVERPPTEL
Experimental: Prostaglandin Synthetase Inhibition Assay
The resulting labelled prostaglandins were isolated on small columns of Bio-Sil® A silica gel. The reaction was buffered with 0.13M Tris.Cl (pH 8.5) and included 0.6 mM epinephrine, 2.1 mM reduced glutathione, and 0.09 mM EDTA, which favored PGE2 as the primary product [C. […] Miles bovine seminal vesicle prostaglandin synthetase (20 μg), inhibitor, cofactor, and buffer were mixed and preincubated for two minutes at 37° C. The substrate was added to initiate the reaction which was run for 10 minutes. The reaction was stopped by freezing in a slurry of dry ice/ethanol. All reactions were run in duplicate. Inhibitors were bead-milled overnight and diluted in reaction buffer (0.2M Tris.Cl, pH 8.5). Inhibition was calculated by the following formula: [formula]

[4] = fasted female white mice, phenylquinone i.p.
[5] = oral, 7 daily doses, ED50 % decrease from control paw volume, uninjected left hind paw

| Structure (SMILES) | ED50 [1, 4] [mg/kg] | ED50 [2, 5] [mg/kg] | IC50 [3] [nM] | Adjuvant Arthritis, decrease in paw volume from controls at dose indicated ([2]; oral, 7 daily doses) [%] | PQW ED50 [1, 4] [mg/kg] | ED50 [1] [mg/kg] | ED50 ([2]; po) [mg/kg] |
| --- | --- | --- | --- | --- | --- | --- | --- |
| CC(C)Cc1ccc(C(C)C(=O)O)cc1 (stereo not drawn) [Ibuprofen, ibuprofen, reference compound] | 10 | 80 | – | – | – | – | – |
| CCCCC1C(=O)N(c2ccccc2)N(c2ccccc2)C1=O [Phenylbutazone, phenylbutazone, reference compound] | 80 | 10 | 270000 | – | – | – | – |
| O=S(=O)(c1nc2c([nH]1)/C(=C/c1ccccc1)c1ccccc1-2)C(F)(F)F [Example 5, 1,8-Dihydro(or 3,8-dihydro)-2-(trifluoromethylsulfonyl)-8-(phenylmethylene)indeno[1,2-d]imidazole, E isomer] | 1 | 5.3 | 23 | – | – | – | – |
| COc1ccc(C=C2c3ccccc3-c3nc(SC(F)(F)F)[nH]c32)cc1 [Example 7] | > 108 | – | 580 | 39 | – | – | – |
| Fc1ccc(C=C2c3ccccc3-c3nc(SC(F)(F)F)[nH]c32)cc1 [Example 11] | 21 | – | 2700 | 39 | – | – | – |
| COc1ccc(C=C2c3ccccc3-c3nc(S(=O)(=O)C(F)(F)F)[nH]c32)cc1 [Example 9, 1,8-Dihydro(or 3,8-dihydro)-2-(trifluoromethylsulfonyl)-8-[(4-methoxyphenyl)methylene]indeno[1,2-d]imidazole, E isomer] | – | 1.95 | 20 | – | 1.44 | – | – |
| COc1ccc(CC2c3ccccc3-c3nc(S(=O)(=O)C(F)(F)F)[nH]c32)cc1 (stereo not drawn) [Example 4, 1,8-DIHYDRO(OR 3,8-DIHYDRO)-2-(TRIFLUOROMETHYLSULFONYL)-8-[(4-METHOXYPHENYL)METHYL]INDENO[1,2-d]-IMIDAZOLE] | – | – | 1200 | – | – | – | – |
| COc1ccc(C=C2c3ccccc3-c3nc(S(=O)(=O)C(F)(F)F)[nH]c32)cc1 [Example 8, 1,8-dihydro(or 3,8-dihydro)-2-(trifluoromethylsulfonyl)-8-[(4-methoxyphenyl)methylene]-indeno[1,2-d]imidazole, Z isomer] | – | – | 310 | 5 | > 36 | – | – |
| [O-][S+](c1nc2c([nH]1)C(=Cc1ccc(F)cc1)c1ccccc1-2)C(F)(F)F (stereo not drawn) [Example 12, 1,8-Dihydro(or 3,8-dihydro)-2-(trifluoromethylsulfinyl)-8-[(4-fluorophenyl)methylene]indeno[1,2-d]imidazole, E isomer] | 0.76 | – | 480 | 48 | – | – | – |
| FC(F)(F)Sc1nc2c([nH]1)/C(=C/c1ccccc1)c1ccccc1-2 [Example 2] | 35 | – | < 75000 | 12 | – | – | – |
| O=S(=O)(c1nc2c([nH]1)/C(=C\c1ccccc1)c1ccccc1-2)C(F)(F)F [Example 3] | > 81 | – | 930 | 37 | – | – | – |
| CC(=O)Oc1ccccc1C(=O)O [Aspirin, aspirin, reference compound] | – | – | – | – | – | 135 | – |
| O=S(=O)(c1nc2c([nH]1)C(=Cc1ccc(F)cc1)c1ccccc1-2)C(F)(F)F [Example 13] | 53.6 | 9.8 | 420 | – | – | – | – |
| COc1ccc2c(c1)c(CC(=O)O)c(C)n2C(=O)c1ccc(Cl)cc1 [Indomethacin, indomethacin, reference compound] | – | – | – | – | – | 0.35 | 0.25 |
